Measured values reported in ChEMBL document CHEMBL4364356, “Deuteration of BTZ043 Extends the Lifetime of Meisenheimer Intermediates to the Antituberculosis Nitroso Oxidation State” (ACS Med Chem Lett, 2019).
Activity calls are given as the source filed them. No cut-off for these calls is given here.

Assays:
[1] = Prodrug conversion in THF/MeOH solution assessed as first order rate constant for protonated/deuterated metabolite (6HD) formation at 0.01 mmol treated with NaBH4 by UV-visible spectroscopic analysis; assay type: ADME
[2] = Prodrug conversion in THF/MeOH solution assessed as first order rate constant for deuterated metabolite (6D2) formation at 0.01 mmol treated with NaBD4 by UV-visible spectroscopic analysis; assay type: ADME
[3] = biological target: T1, Decaprenylphosphoryl-beta-D-ribose oxidase (Mycobacterium tuberculosis (strain ATCC 25618 / H37Rv)) (UniProt P9WJF1); test: Inhibition of DprE1 in Mycobacterium tuberculosis H37Rv assessed as reduction in bacterial growth at 0.02 to 0.03 uM measured in GAS medium
T1 sequence (whole entry): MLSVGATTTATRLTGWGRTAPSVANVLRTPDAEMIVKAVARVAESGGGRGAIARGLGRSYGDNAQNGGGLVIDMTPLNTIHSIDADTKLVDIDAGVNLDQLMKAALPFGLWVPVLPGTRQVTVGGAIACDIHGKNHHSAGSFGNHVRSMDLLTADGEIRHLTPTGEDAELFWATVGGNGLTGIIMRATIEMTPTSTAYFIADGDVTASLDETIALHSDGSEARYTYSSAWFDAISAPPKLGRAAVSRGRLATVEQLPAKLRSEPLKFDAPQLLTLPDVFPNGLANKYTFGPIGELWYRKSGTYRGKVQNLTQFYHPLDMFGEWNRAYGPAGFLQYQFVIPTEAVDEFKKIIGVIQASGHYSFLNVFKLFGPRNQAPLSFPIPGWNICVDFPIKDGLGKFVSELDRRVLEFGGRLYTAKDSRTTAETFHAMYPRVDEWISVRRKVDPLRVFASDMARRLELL

[4] = Drug recovery in THF/MeOH solution measured after 3 days by 1H-NMR analysis; settings: tested as the 2H-labelled form
[5] = Prodrug conversion in THF/MeOH solution assessed as first order rate constant for protonated metabolite (6H2) formation at 0.01 mmol treated with NaBH4 by UV-visible spectroscopic analysis; assay type: ADME
[6] = biological target: T1, Decaprenylphosphoryl-beta-D-ribose oxidase (Mycobacterium tuberculosis (strain ATCC 25618 / H37Rv)); test: Inhibition of DprE1 in Mycobacterium tuberculosis H37Rv assessed as reduction in bacterial growth at <0.004 uM measured in MABA media

## [2H]c1c(C(F)(F)F)c([2H])c2c(=O)nc(N3CCC4(CC3)OC[C@H](C)O4)sc2c1[N+](=O)[O-]
[1]
  K: 2.8 ×10⁻⁵ /s
[2]
  K: 1.2 ×10⁻⁵ /s

## C[C@H]1COC2(CCN(c3nc(=O)c4cc(C(F)(F)F)cc([N+](=O)[O-])c4s3)CC2)O1 [BTZ-043]
[3]
  inhibition: Active
[3]; tested as the 2H-labelled form
  inhibition: Active
[4]
  Drug recovery: 95%
[5]
  K: 5.6 ×10⁻⁵ /s
[6]
  inhibition: Active
[6]; tested as the 2H-labelled form
  inhibition: Active
